Source: ChEMBL document CHEMBL1150586, “Goniolactones A-F, six new styrylpyrone derivatives from the roots of Goniothalamus cheliensis” (J Nat Prod, 2002)

Experiments:
Assay type in all cases: functional, cell-based
A2780 = experiment: Cytotoxicity against human A2780 cells after 5 days by MTT assay; details: A2780, 120 h
HCT-8 = experiment: Cytotoxicity against human HCT8 cells after 5 days by MTT assay; details: HCT-8, 120 h
KB = experiment: Cytotoxicity against human KB cells after 5 days by MTT assay; details: 120 h

Compound: O=C1C=CC[C@H]([C@H](O)[C@@H](c2ccccc2)c2c(O)cc3c(c2O)C(=O)C[C@@H](c2ccccc2)O3)O1 [GONIOLACTONE B]
- IC50 (A2780): 7.4 µM
- IC50 (HCT-8): 4.43 µM
- IC50 (KB): 7.23 µM
